Laboratory results as given in patent US20220177538A1, “CO-AGONISTS AT GLP-1 AND GIP RECEPTORS SUITABLE FOR ORAL DELIVERY” (Novo Nordisk A/S, priority 2020, published 2022).
pEC50: −log10 of the molar value. Read-outs that look alike come from different tables or passages of the source. Starred links: 1 amine or outer side, 2 acyl side, 3 side chain; linkers in the order of their positions; H or OH if unused. Non-standard residues stand in square brackets, D forms with d. Residues, ends and D or L forms follow the SMILES beside them. Groups on a side chain read outwards from the residue. *: point of attachment. C20 diacid = O=C(O)CCCCCCCCCCCCCCCCCCC(=O)*; C18 diacid = O=C(O)CCCCCCCCCCCCCCCCC(=O)*; γGlu = O=C(O)[C@H](CCC(=O)[*:2])N[*:1]; εLys = N[C@@H](CCCCN[*:1])C(=O)[*:2]; Aib = CC(C)(N)C(=O)O

Assays:
human GLP-1 receptor = human GLP-1 receptor (Homo sapiens, UniProt P43220); test: In vitro functional potency, CRE luciferase reporter, whole BHK cells (hGLP-1R); assay type: cell-based; parameters: expressed in transfected cells; host or cells: BHK (parent line BHKTS13), clone BHK CRE luc2P hGLP-1R; details: BHK CRE luc2P hGLP-1R cells
Chain of human GLP-1 receptor (P43220 24-463): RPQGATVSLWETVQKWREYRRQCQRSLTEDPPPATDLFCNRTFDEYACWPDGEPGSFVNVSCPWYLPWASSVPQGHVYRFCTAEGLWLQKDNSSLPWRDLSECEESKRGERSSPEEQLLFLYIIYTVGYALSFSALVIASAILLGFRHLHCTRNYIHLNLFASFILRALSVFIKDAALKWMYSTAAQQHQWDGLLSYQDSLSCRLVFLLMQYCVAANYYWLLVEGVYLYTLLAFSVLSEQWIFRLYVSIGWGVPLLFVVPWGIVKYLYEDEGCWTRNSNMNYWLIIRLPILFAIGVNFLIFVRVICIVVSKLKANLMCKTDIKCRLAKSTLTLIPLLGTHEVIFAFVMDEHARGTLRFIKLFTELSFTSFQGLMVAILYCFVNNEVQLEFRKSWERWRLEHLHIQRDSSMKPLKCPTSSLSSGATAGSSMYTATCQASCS
Outline: (§1)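 BHK CRE luc2P cells stably expressing hGIPR or hGLP-1R were seeded at 5000 cells/well overnight. They were treated 3 h at 37° C with a 12-point, 3.5-fold compound series in buffer with or without HSA, and luciferase luminescence was read. Values come from log(agonist)-response regression, averaging at least two replicates.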

human GIP receptor = target: T1, human GIP receptor (Homo sapiens, UniProt P48546); test: In vitro functional potency, CRE luciferase reporter, whole BHK cells (hGIPR); assay type: cell-based; details: BHK CRE luc2P hGIPR cells
T1 construct: expressed in transfected cells; host or cells: BHK (parent line BHKTS13), clone BHK CRE luc2P hGIPR
T1 sequence (P48546 22-466): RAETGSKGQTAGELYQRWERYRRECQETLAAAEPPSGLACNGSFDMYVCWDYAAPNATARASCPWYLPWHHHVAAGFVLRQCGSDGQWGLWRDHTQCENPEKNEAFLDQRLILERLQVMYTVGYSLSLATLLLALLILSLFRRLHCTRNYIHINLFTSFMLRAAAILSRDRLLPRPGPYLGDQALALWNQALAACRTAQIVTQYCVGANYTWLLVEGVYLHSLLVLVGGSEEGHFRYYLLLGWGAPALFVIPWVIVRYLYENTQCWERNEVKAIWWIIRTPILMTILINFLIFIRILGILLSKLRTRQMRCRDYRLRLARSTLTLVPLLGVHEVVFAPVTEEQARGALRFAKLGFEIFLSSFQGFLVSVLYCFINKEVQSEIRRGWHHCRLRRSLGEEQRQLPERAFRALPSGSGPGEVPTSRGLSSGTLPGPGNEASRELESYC
Outline: as §1

[1] = Pharmacokinetic study in dogs after oral dosing of tablets with SNAC; assay type: in vivo, Beagle dogs; details: for Tmax / half-life: male
Procedure: The purpose of this example is to determine the half-life and plasma exposure in vivo of the compounds of the present invention after p.o. administration to beagle dogs, i.e. the terminal half-life and concentration of test substance that reaches circulation with time. This is done in a pharmacokinetic (PK) study, where these parameters of the compound in question are determined. By terminal half-life is generally meant the period of time it takes to halve a certain plasma concentration, measured after the initial distribution phase.
The amount of SNAC in the tablet composition was 100-300 mg, the amount of magnesium stearate in the tablet composition was 7.7 mg, and the target amount of each test substance in the tablet composition was 3-4 mg.
Male beagle dogs, 1-7 years of age and weighing 9-17 kg during the study period, were included in the study. The dogs were dosed in a fasting state. The dogs were group housed in pens (12 hours light: 12 hours dark), and fed individually and restrictedly once daily with Royal Canin Medium Adult dog food (Royal Canin Products, China Branch, or Brogaarden A/S, Denmark). The dogs were used for repeated PK studies with a suitable wash-out period between successive dosing. An appropriate acclimatization period was given prior to initiation of the first PK study. All handling, dosing, and blood sampling of the animals were performed by trained and skilled staff. Before the studies, the dogs were fasted overnight and from 0 to 4 hours after dosing. The dogs were restricted to water 1 hour before dosing until 4 hours after dosing, but otherwise had ad libitum access to water during the whole period.
The compositions were administered by a single oral dosing to the dogs in groups of 6-8 dogs. […] The mouth was then closed, and 10 mL of tap water was given by syringe or gavage to facilitate swallowing of the tablet.
One blood sample was drawn before dosing, and additional samples were drawn at predefined time points after dosing for up to 240 hours, such as up to 10 hours, to adequately cover the full plasma concentration-time absorption profile of the test substance. For each blood sample time point, approximately 0.8 mL of whole blood was collected in a 1.5 mL EDTA-coated tube, which was gently turned to mix the sample with EDTA. Blood samples were collected in EDTA buffer (8 mM) and then centrifuged at 4° C. 2000 g for 10 minutes. Plasma was pipetted into Micronic tubes on dry ice, and kept at −20° C. or lower until analysis. Blood samples were taken as appropriate, for example from a venflon in the cephalic vein in the front leg for the first 2 hours and then with syringe from the jugular vein for the rest of the time points. The first few drops were allowed to drain from the venflon to avoid heparin saline from the venflon in the sample.
All blood samples were collected into test tubes containing EDTA for stabilisation and kept on ice until centrifugation. Plasma was separated from whole blood by centrifugation and the plasma was stored at −20° C. or lower until analysis.
The plasma was analysed for test substance using LC-MS (Liquid Chromatography-Mass Spectrometry) as known to the person skilled in the art. […] RP-HPLC separation was achieved using a linear gradient of 1:1 acetonitrile/methanol in 1% aqueous formic acid using either: a Phenomenex Onyx Monolithic C18 column (50×2.0 mm) and a flow rate of 0.8 mL/min at 30° C.; or an Agilent Poroshell 120 SB-C18 column (50×2.1 mm, 2.7 μm) at a flow rate of 0.4 mL/min at 60° C. The mass spectrometer was operated in either positive ionization SIM mode or positive ionization PRM mode.
For each individual animal, a plasma concentration-time profile was analysed by a non-compartmental model in Pharsight Phoenix WinNonLin ver.

[2] = 0% HSA, read-out: hGLP-1R, CRE Luc 0% HSA EC50
[3] = hGLP-1R, CRE Luc 1% HSA EC50, 1% HSA
[4] = 0% HSA, read-out: hGIPR, CRE Luc 0% HSA EC50
[5] = hGIPR, CRE Luc 1% HSA EC50, 1% HSA
[6] = oral tablet, SNAC 100 mg, test substance 3 mg, Beagle dogs, arithmetic mean

Tmax ([1]; dog, plasma, oral tablet, SNAC 100 mg, test substance 3 mg, Beagle dogs, median, read-out: Tmax) [h]	AUC/Dose [1, 6] [kg·h/L]	Cmax/Dose [1, 6] [kg/L]	Compound	pEC50 (human GLP-1 receptor; [2])	pEC50 (human GLP-1 receptor; [3])	pEC50 (human GIP receptor; [4])	pEC50 (human GIP receptor; [5])	AUC/Dose ([1]; dog, in vivo, po) [kg·h/L]	Cmax/Dose ([1]; dog, in vivo, po) [kg/L]	Tmax ([1]; Beagle, dog, in vivo, po) [h]	half-life ([1]; Beagle, dog, in vivo, po) [h]
–	–	–	CC[C@H](C)[C@H](NC(=O)[C@H](Cc1ccccc1)NC(=O)[C@H](CCC(=O)O)NC(=O)[C@H](CCCNC(=N)N)NC(=O)[C@H](C)NC(=O)[C@H](C)NC(=O)[C@H](CCC(N)=O)NC(=O)[C@H](CCCCNC(=O)[C@@H](N)CCCCNC(=O)[C@@H](N)CCCCNC(=O)CC[C@H](NC(=O)CCCCCCCCCCCCCCCCCCC(=O)O)C(=O)O)NC(=O)[C@H](CCC(=O)O)NC(=O)[C@H](CC(C)C)NC(=O)[C@H](Cc1ccc(O)cc1)NC(=O)[C@@H](NC(=O)[C@H](CO)NC(=O)[C@H](Cc1ccc(O)cc1)NC(=O)[C@H](CC(=O)O)NC(=O)[C@H](CO)NC(=O)[C@@H](NC(=O)[C@H](Cc1ccccc1)NC(=O)[C@@H](NC(=O)CNC(=O)[C@H](CCC(=O)O)NC(=O)C(C)(C)NC(=O)[C@@H](N)Cc1ccc(O)cc1)[C@@H](C)O)[C@@H](C)O)[C@@H](C)CC)C(=O)N[C@@H](CC(N)=O)C(=O)N[C@@H](Cc1c[nH]c2ccccc12)C(=O)N[C@@H](CC(C)C)C(=O)N[C@@H](CC(C)C)C(=O)N[C@@H](C)C(=O)NCC(=O)NCC(=O)N1CCC[C@H]1C(=O)N[C@@H](CO)C(=O)N[C@@H](CO)C(=O)NCC(=O)N[C@@H](C)C(=O)N1CCC[C@H]1C(=O)N1CCC[C@H]1C(=O)N1CCC[C@H]1C(=O)N[C@@H](CO)C(=O)O [Compound 16] (H-Y[Aib]EGTFTSDYSIYLEK([εLys-εLys-γGlu-C20 diacid])QAAREFINWLLAGGPSSGAPPPS-OH)	11.51	9.49	10.87	9.09	8.6	0.21	1.3	47
2	10.8	0.21	CC[C@H](C)[C@H](NC(=O)[C@H](Cc1ccccc1)NC(=O)[C@H](CCC(=O)O)NC(=O)[C@H](CCCNC(=N)N)NC(=O)[C@H](C)NC(=O)[C@H](C)NC(=O)[C@H](CCC(N)=O)NC(=O)[C@H](CCCCNC(=O)[C@@H](N)CCCCNC(=O)[C@@H](N)CCCCNC(=O)CC[C@H](NC(=O)CCCCCCCCCCCCCCCCC(=O)O)C(=O)O)NC(=O)[C@H](CCC(=O)O)NC(=O)[C@H](CC(C)C)NC(=O)[C@H](CC(C)C)NC(=O)[C@@H](NC(=O)[C@H](CO)NC(=O)[C@H](Cc1ccc(O)cc1)NC(=O)[C@H](CC(=O)O)NC(=O)[C@H](CO)NC(=O)[C@@H](NC(=O)[C@H](Cc1ccccc1)NC(=O)[C@@H](NC(=O)CNC(=O)[C@H](CCC(=O)O)NC(=O)C(C)(C)NC(=O)[C@@H](N)Cc1ccc(O)cc1)[C@@H](C)O)[C@@H](C)O)[C@@H](C)CC)C(=O)N[C@@H](CC(N)=O)C(=O)N[C@@H](Cc1c[nH]c2ccccc12)C(=O)N[C@@H](CC(C)C)C(=O)N[C@@H](CC(C)C)C(=O)N[C@@H](C)C(=O)NCC(=O)NCC(=O)N1CCC[C@H]1C(=O)N[C@@H](CO)C(=O)N[C@@H](CO)C(=O)O [Compound 20] (H-Y[Aib]EGTFTSDYSILLEK([εLys-εLys-γGlu-C18 diacid])QAAREFINWLLAGGPSS-OH)	11.38	9.59	11.15	9.61	–	–	–	56
–	–	–	CC[C@H](C)[C@H](NC(=O)[C@H](Cc1ccccc1)NC(=O)[C@H](CCC(=O)O)NC(=O)[C@H](CCC(N)=O)NC(=O)[C@H](C)NC(=O)[C@H](C)NC(=O)[C@H](CCC(N)=O)NC(=O)[C@H](CCCCNC(=O)[C@@H](N)CCCCNC(=O)[C@@H](N)CCCCNC(=O)CC[C@H](NC(=O)CCCCCCCCCCCCCCCCC(=O)O)C(=O)O)NC(=O)[C@H](CCC(=O)O)NC(=O)[C@H](CC(C)C)NC(=O)[C@H](CC(C)C)NC(=O)[C@@H](NC(=O)[C@H](CO)NC(=O)[C@H](Cc1ccc(O)cc1)NC(=O)[C@H](CC(=O)O)NC(=O)[C@H](CO)NC(=O)[C@@H](NC(=O)[C@H](Cc1ccccc1)NC(=O)[C@@H](NC(=O)CNC(=O)[C@H](CCC(=O)O)NC(=O)C(C)(C)NC(=O)[C@@H](N)Cc1ccc(O)cc1)[C@@H](C)O)[C@@H](C)O)[C@@H](C)CC)C(=O)N[C@@H](CC(N)=O)C(=O)N[C@@H](Cc1c[nH]c2ccccc12)C(=O)N[C@@H](CC(C)C)C(=O)N[C@@H](CC(C)C)C(=O)N[C@@H](C)C(=O)NCC(=O)NCC(=O)N1CCC[C@H]1C(=O)N[C@@H](CO)C(=O)N[C@@H](CO)C(=O)NCC(=O)N[C@@H](C)C(=O)N1CCC[C@H]1C(=O)N1CCC[C@H]1C(=O)N1CCC[C@H]1C(=O)N[C@@H](CO)C(=O)O [Compound 24] (H-Y[Aib]EGTFTSDYSILLEK([εLys-εLys-γGlu-C18 diacid])QAAQEFINWLLAGGPSSGAPPPS-OH)	10.92	9.31	11.41	9.94	16.4	0.29	1.8	74
–	–	–	CC[C@H](C)[C@H](NC(=O)[C@H](Cc1ccccc1)NC(=O)[C@H](CCC(=O)O)NC(=O)[C@H](CCC(=O)O)NC(=O)[C@H](C)NC(=O)[C@H](C)NC(=O)[C@H](CCC(N)=O)NC(=O)[C@H](CCCCNC(=O)[C@@H](N)CCCCNC(=O)[C@@H](N)CCCCNC(=O)CC[C@H](NC(=O)CCCCCCCCCCCCCCCCC(=O)O)C(=O)O)NC(=O)[C@H](CCC(=O)O)NC(=O)[C@H](CC(C)C)NC(=O)[C@H](CC(C)C)NC(=O)[C@@H](NC(=O)[C@H](CO)NC(=O)[C@H](Cc1ccc(O)cc1)NC(=O)[C@H](CC(=O)O)NC(=O)[C@H](CO)NC(=O)[C@@H](NC(=O)[C@H](Cc1ccccc1)NC(=O)[C@@H](NC(=O)CNC(=O)[C@H](CCC(=O)O)NC(=O)C(C)(C)NC(=O)[C@@H](N)Cc1ccc(O)cc1)[C@@H](C)O)[C@@H](C)O)[C@@H](C)CC)C(=O)N[C@@H](CC(N)=O)C(=O)N[C@@H](Cc1c[nH]c2ccccc12)C(=O)N[C@@H](CC(C)C)C(=O)N[C@@H](CC(C)C)C(=O)N[C@@H](C)C(=O)NCC(=O)NCC(=O)N1CCC[C@H]1C(=O)N[C@@H](CO)C(=O)N[C@@H](CO)C(=O)NCC(=O)N[C@@H](C)C(=O)N1CCC[C@H]1C(=O)N1CCC[C@H]1C(=O)N1CCC[C@H]1C(=O)N[C@@H](CO)C(=O)O [Compound 25] (H-Y[Aib]EGTFTSDYSILLEK([εLys-εLys-γGlu-C18 diacid])QAAEEFINWLLAGGPSSGAPPPS-OH)	10.81	9.13	11.14	9.58	15.2	0.30	1.8	43
